Assays:
[1] = target: T1, α5β1 integrin (Homo sapiens, UniProt P05556+P08648); experiment: In vitro cell adhesion assay: α5β1 integrin mediated adhesion of K562 cells to fibronectin fragment Fn9-10; type: cell-based; parameters: α5β1 integrin mediated adhesion of K562 cells; host or cells: K562 human erythroleukaemia cells; conditions: K562 cells on Fn9-10 coated plates; 0.2 mM MnCl; read-out: b) Cell Adhesion Assay
Source text: The assay determined the ability of compounds to inhibit the α5β1 integrin mediated adhesion of K562 cells to the ligand, a fragment of human fibronectin. The human K562 erythroleukaemia cell line (LGC Promochem, Teddington, Middlesex, UK, Catalogue No. CCL-243) was routinely maintained in RPMI 1640 medium (Sigma-Aldrich Company Ltd, Gillingham, Dorset SP8 4XT, Catalogue No. R0883) containing 10% heat-inactivated foetal calf serum (PAA lab GmbH, Pasching, Austria Catalogue No. PAA-A15-043) and 1% glutamax-1 (Invitrogen Ltd. Paisley, UK Catalogue No. 35050-038) at 37° C. with 5% CO2 at densities between 1×10^5 and 1×10^6 cells/ml.
A DNA fragment encoding the domains 9-10 (amino-acids 1325-1509) of human fibronectin (Swiss-Prot Acession No. P02751) was isolated from cDNA libraries using standard molecular biology and PCR cloning techniques. The cDNA fragment was sub-cloned into a pT7#3.3 expression vector containing a GST-epitope tag (developed at AstraZeneca; Bagnall et al., Protein Expression and Purification, 2003, 27: 1-11) and the fragment termed Fn9-10. Following expression in E. coli, the expressed protein was purified using the GST-tag using standard purification techniques.
For adhesion assay, a 96-well flat bottomed plate (Greiner Bio one ltd., Gloucester GL10 3SX Catalogue No. 655101) was coated overnight at 4° C. with 100 μl of 20 μg/ml Fn9-10 ligand in Dulbecco's PBS (Gibco#14190-94). The plate was then washed twice with 200 μl of PBS and blocked with 100 μl of 3% BSA (SigmaA7888) in PBS for 1 hour at 37° C. The plates were then washed again 3 times with 200 μl of PBS and left empty.
Test compounds were prepared as 10 mM stock solutions in DMSO (Sigma-Aldrich Company Ltd, Gillingham, Dorset SP8 4XT Catalogue No. 154938) and serially diluted with HBSS (Hanks Buffered Salt solution (Gibco Catalogue No. 14170-088)/2% DMSO to give a range of test concentrations at twice required final concentration. Aliquots (50 μl) of each compound dilution were placed into each well of the Fn9-10 coated plates. Each plate also contained control wells: maximum adhesion signal was created using wells containing 50 μl HBSS/2% DMSO and minimum signal corresponding to no adhesion was created using wells containing 50 μl HBSS/2% DMSO/20 mM EDTA (Sigma Catalogue No. E7889).
The K562 cells were cultured to ˜1×10^6 cells/ml and each culture suspension pooled. Cells were centrifuged at 1200 rpm for 2 mins and the pellets washed with HBSS followed by HBSS/50 mM HEPES (Sigma Catalogue No. H0887). Cell pellets were pooled and resuspended in HBSS/0.4 mM manganese chloride/50 mM HEPES (MnCl; Sigma Catalogue No. M1787) to give a final concentration of 4×10^6 cells/ml.
The assay was initiated by the addition of 50 μl of cell suspension into each coated well (200,000 cells/well), thus resulting in final desired compound concentration and a final MnCl concentration of 0.2 mM. The plates were incubated for 45 minutes at 37° C. 5% CO2. After this time, the solution was flicked off as waste and the remaining cell layer carefully washed twice with 200 μl of PBS and then fixed with 200 μl of 100% ethanol for 30 minutes.
After fixation, the ethanol was flicked off to waste and 100 μl of 0.1% Crystal violet stain was added to each well and incubated at ambient temperature for 15 minutes. Excess stain was removed by rinsing ˜3 times under cold slow running water. The plates were blotted over tissue then solubilised by adding 50 μl of 1% Triton X100 (Sigma Catalogue No. T9284) and shaking at 500 rpm for 30 mins on plate shaker. Finally, 100 μl of deionised water was added to each well and the absorbance was determined at 590 nm on a spectrophotometer. The minimum value was subtracted from all values and the absorbance signal was plotted against compound concentration to generate IC50 data.

[2] = target: T1, α5β1 integrin; experiment: In vitro binding assay: inhibition of binding of α5β1 integrin to fibronectin fragment Fn9-10 (Origen electrochemiluminescence); conditions: human a5b1 purified from placenta; biotinylated Fn9-10 ligand
Experimental: The assay determined the ability of compounds to inhibit binding of a5 μl integrin to a cognate ligand, a fragment of human fibronectin. The assay used Origen technology (IGEN International) to measure the compound activity. Briefly, (α5β1 integrin was coated onto epoxy-paramagnetic beads (Dynal Biotech UK, Bromborough, Wirral, CH62 3QL, UK, Catalogue No 143.02) and biotinylated-fibronectin ligand was coupled to strepatividin labelled BV-Tag-NHS-Ester (BioVeris Corporation, Witney, Oxfordshire, OX28 4GE, UK, Catalogue No JSF396). The ruthenium-labelled BV-Tag emits a electrochemiluminescence signal upon stimulation which is detected by the Origen reader. Thus, interaction of integrin and ligand causes association of bead and tag and the resulting electrochemiluminescence signal reflects the level of integrin interaction with fibronectin.
12 μg of human a5 μl purified from placenta (Chemicon, Chandlers Ford, Hampshire, SO53 4NF, UK, Catalogue No CC1055-K) was coated onto surface-activated 3 mg of epoxy-paramagnetic beads in PBS and 1M ammonium sulfate following manufacturers instructions at 4° C. for 24 hours. Coated beads were then washed into Assay Buffer (25 mM Hepes, 150 mM NaCl, 1 mM MgCl, 1 mM MnCl, 0.1% Tween, pH7.4) to give a final concentration of 20 μg of α5β1/ml. Immediately prior to the assay, the beads were further diluted ×40 fold in Assay Buffer to give a concentration of 0.5 μg α5β1/ml.
A DNA fragment encoding the domains 9-10 (amino-acids 1325-1509) of human fibronectin (Swiss-Prot Acession No. P02751) was isolated from cDNA libraries using standard molecular biology and PCR cloning techniques. The cDNA fragment was sub-cloned into a pT73.3 expression vector containing a GST-epitope tag (developed at AstraZeneca; Bagnall et al., Protein Expression and Purification, 2003, 27: 1-11). Following expression in E. coli, the expressed protein, termed Fn9-10, was purified using the GST-tag using standard purification techniques. The recombinant Fn9-10 was subsequently biotinylated using a EZ-link Sulfo-NHS-LC-Biotinylation kit (Perbio Science UK Ltd., Cramlington, Northumberland, NE23 1WA, UK, Catalogue No. 21335) and made to give a final concentration of approximately 1 mg/ml. BV-Tag-NHS-Ester was labelled with streptavidin by incubation at room temperature following manufacturers instructions and buffer-exchanged into PBS to give a concentration of 0.5 mg/ml. […]
For the assay, […] of a5b1-bead suspension and 40 μl of the Fn9-10/BV-Tag preincubated solution were added to each well containing 20 μl of compound or control solution. Assay plates were then incubated at room temperature for a minimum of 6 hours before being analysed on the Origen plate reader. […]

T1 sequence (P08648 42-894 limits assumed): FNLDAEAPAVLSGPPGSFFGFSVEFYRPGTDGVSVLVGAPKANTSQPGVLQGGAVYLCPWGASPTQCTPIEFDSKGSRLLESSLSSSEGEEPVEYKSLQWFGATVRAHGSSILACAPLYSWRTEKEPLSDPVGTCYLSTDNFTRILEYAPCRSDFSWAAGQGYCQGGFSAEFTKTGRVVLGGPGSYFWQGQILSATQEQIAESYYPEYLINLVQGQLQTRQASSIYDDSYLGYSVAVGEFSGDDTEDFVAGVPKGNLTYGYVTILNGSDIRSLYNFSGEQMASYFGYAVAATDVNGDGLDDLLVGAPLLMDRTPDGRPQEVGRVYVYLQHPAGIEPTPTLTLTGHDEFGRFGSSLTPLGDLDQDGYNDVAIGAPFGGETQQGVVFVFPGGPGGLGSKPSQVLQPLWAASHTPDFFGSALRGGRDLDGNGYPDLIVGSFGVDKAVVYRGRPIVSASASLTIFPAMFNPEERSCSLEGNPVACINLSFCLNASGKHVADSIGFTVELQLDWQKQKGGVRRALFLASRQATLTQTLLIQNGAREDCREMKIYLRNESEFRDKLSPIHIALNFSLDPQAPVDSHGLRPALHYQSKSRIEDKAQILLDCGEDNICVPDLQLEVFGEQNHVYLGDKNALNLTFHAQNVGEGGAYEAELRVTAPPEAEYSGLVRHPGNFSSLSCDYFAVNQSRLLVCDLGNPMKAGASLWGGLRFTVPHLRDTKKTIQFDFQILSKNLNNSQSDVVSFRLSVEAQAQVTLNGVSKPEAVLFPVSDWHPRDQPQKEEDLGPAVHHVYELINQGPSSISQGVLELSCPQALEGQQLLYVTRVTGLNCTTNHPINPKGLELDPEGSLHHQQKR
T1 sequence (P08648 895-1049 partner limits assumed): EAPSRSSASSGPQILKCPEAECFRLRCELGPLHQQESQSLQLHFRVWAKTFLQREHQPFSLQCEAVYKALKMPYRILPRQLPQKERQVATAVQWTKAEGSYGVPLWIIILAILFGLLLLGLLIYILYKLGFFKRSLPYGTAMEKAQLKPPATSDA
T1 sequence (P05556 21-798): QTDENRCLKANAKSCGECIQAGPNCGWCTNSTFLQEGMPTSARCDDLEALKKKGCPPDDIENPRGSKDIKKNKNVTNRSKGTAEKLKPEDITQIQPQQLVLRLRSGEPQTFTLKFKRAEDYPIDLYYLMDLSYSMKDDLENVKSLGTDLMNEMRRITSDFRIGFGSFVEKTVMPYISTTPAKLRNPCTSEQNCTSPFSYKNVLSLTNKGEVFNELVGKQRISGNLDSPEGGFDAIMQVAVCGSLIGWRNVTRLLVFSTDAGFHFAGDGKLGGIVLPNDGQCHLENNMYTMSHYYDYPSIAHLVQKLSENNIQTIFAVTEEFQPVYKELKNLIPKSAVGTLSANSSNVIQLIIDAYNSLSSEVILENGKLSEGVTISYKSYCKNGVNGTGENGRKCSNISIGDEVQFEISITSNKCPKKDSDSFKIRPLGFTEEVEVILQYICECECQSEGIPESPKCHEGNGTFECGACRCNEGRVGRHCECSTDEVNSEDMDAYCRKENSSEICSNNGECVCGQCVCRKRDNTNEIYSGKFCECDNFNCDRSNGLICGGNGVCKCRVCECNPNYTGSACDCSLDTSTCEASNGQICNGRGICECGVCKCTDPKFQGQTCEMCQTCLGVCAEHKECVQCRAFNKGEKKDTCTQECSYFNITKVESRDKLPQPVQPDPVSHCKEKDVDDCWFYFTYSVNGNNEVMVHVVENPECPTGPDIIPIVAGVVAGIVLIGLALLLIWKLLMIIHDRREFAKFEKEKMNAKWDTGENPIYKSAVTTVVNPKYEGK

Row | Compound | IC50 [1] [µM] | IC50 [2] [µM]
1 | CC(=O)NCC(=O)N1CC=C(c2ccc(C[C@H](NC(=O)c3c(Cl)cccc3Cl)C(=O)O)nc2)CC1 [3-[1′-(N-acetylglycyl)-1′,2′,3′,6′-tetrahydro-3,4′-bipyridin-6-yl]-N-(2,6-dichlorobenzoyl)-L-alanine] | ≥ 100 | –
2 | O=C(N[C@@H](Cc1ccc(C2=CCN(Cc3ccc(F)cc3)CC2)cn1)C(=O)O)c1c(Cl)cccc1Cl | 13.2 | 6
3 | CCCS(=O)(=O)N1CC=C(c2ccc(C[C@H](NC(=O)c3c(Cl)cccc3Cl)C(=O)O)nc2)CC1 | 7 | 13.9
4 | O=C(N[C@@H](Cc1ccc(C2=CCN(C(=O)c3cccc(F)c3)CC2)cn1)C(=O)O)c1c(Cl)cccc1Cl | 48 | 7.2
5 | O=C(N[C@@H](Cc1ccc(N2CCN(S(=O)(=O)c3ccccc3)CC2)cn1)C(=O)O)c1c(Cl)cccc1Cl [N-(2,6-dichlorobenzoyl)-3-{5-[4-(phenylsulfonyl)piperazin-1-yl]pyridin-2-yl}-L-alanine] | ≥ 100 | –
6 | CS(=O)(=O)N1CC=C(c2ccc(C[C@H](NC(=O)c3c(Cl)cccc3Cl)C(=O)O)nc2)CC1 | 70.5 | 24.7

Reference: patent publication US20090111828A1, “L-ALANINE DERIVATIVES” (ASTRAZENECA AB, priority 2005, published 2009)
